From patent publication EP0560267B1, “Isosteric antiherpes peptide derivatives” (BOEHRINGER INGELHEIM (CANADA) LTD., priority 1992, dated 1993)
Where two headings read alike, the source gives them in different places.

Experiments:
[1] = biological target: T1, HSV-1 ribonucleotide reductase (Human herpesvirus 1, UniProt P08543); assay: Inhibition of Herpes Simplex Virus (HSV-1) ribonucleotide reductase; format: biochemical
T1 construct: HSV-1 ribonucleotide reductase (partially purified) was obtained from quiescent BHK-21/C13 cells infected with strain F HSV-1 virus; made in house; host or cells: quiescent BHK-21/C13 cells infected with HSV-1 strain F (virus-encoded enzyme, partially purified)
From the text: Inhibition of Herpes Simplex Virus (HSV-1) Ribonucleotide Reductase
• a) Preparation of Enzyme HSV-1 ribonucleotide reductase (partially purified) was obtained from quiescent BHK-21/C13 cells infected with strain F HSV-1 virus at 10 plaque forming units/cell as described by E.A. Cohen et al., J. Gen. Virol., 66, 733 (1985). • b) Assay and Results for Exemplified Peptides By following the procedure described by P. Gaudreau et al., J. Biol, Chem., 262, 12413 (1987), the assay results listed in the following Table I were obtained. The assay result for each exemplified compound of formula 1 is expressed as the concentration of the compound producing 50% of the maximal inhibition (IC50) of enzyme activity. The number of units of the enzyme preparation used in each assay was constant, based on the specific activity of the enzyme preparation. The results are relative to the activity obtained in control experiments without the test compound and represent the mean of four assays that varied less than 10% with each other.

HSV-2 = assay: Inhibition of Herpes Simplex Virus (HSV-2) replication in cell culture; format: cell-based
Protocol: Inhibition of Herpes Simplex Virus (HSV-2) Replication in Cell Culture
BHK-21/C13 cells (ATCC CCL 10) are incubated for two days in 150 cm^2 T-flasks (1.5 x 10^6 cells/flask) with alpha-MEM medium (Gibco Canada Inc., Burlington, Ontario, Canada) supplemented with 8% (v/v) fetal bovine serum (FBS, Gibco Canada Inc.). The cells are trypsinized and then transferred to fresh media in a 24 well plate to give 2.5 x 10^5 cells in 750 µL of media per well. The cells are incubated at 37° for a period of 6 h to allow them to adhere to the plate. Thereafter, the cells are washed once with 500 µL of alpha-MEM supplemented with 0.5% (v/v) FBS and then incubated with 750 µL of the same media (low serum) for 3 days. After this period of serum starvation, the low serum medium is removed and the cells are incubated in 500 µL of BBMT for 2 to 3 hours. {BBMT medium is described by P. Brazeau et al., Proc. Natl. Acad. Sci. USA, 79, 7909 (1982).} Thereafter, the cells are infected with HSV-2 (multiplicity of infection = 0.02 PFU/cell) in 100 µL of BBMT medium. (Note: The HSV-2 used was strain HG-52, see Y. Langelier and G. Buttin, J. Gen. Virol., 57, 21 (1981); the virus was stored at -80°.) Following 1 h of virus adsorption at 37°, the media is removed and the cells are washed with BBMT (3 X 250 µL). The cells in each well are incubated with or without (control) appropriate concentrations of the test agent dissolved in 200 µL of BBMT medium. After 29 h of incubation at 37°, the infected cells are harvested by first freezing the plate at -80°, followed by thawing. The cells in each well are scraped off the surface of the well with the help of the melting ice fragments. After complete thawing, the cell suspensions are collected and each well is rinsed with 150 µL of BBMT medium. The viral sample (suspension plus washing) is sonicated gently for 4 min at 4°. Cell debris are removed by centrifugation (1000 times gravity for 10 minutes at 4°). The supernatant is collected and stored at -80° until determination of viral titer.
Viral titration was performed by a modification of the colorimetric assay method of M. Langlois et al., Journal of Biological Standardization, 14, 201 (1986).
More specifically, in a similar manner as described above, BHK-21/C13 cells are trypsinized and transferred to fresh media in a 96 well microtiter plate to give 20,000 cells in 100 µL of media per well. The cells in the prepared plate are incubated at 37° for 2 h. During that time, the viral sample is thawed and sonicated gently for 15 seconds, and log dilutions of the sample are prepared (1/5 sequential: 50 µL of the sample plus 200 µL of BBMT medium, sequential dilutions being done with a multichannel pipette.
On completion of the above 2 hour incubation of the BHK-21/C13 cells, the media is replaced with alpha-MEM medium supplemented with 3% (v/v) FBS. The cells are now ready to be infected with the various sample dilutions of virus. Aliquots (50 µL) of the various dilutions are transferred into the appropriate wells of the plate. The resulting infected cells are incubated for 2 days at 37°. Then 50 µL of a 0.15% (v/v) solution of neutral red dye in Hank's Balanced Salt Solution (pH 7.3, Gibco Canada Inc.) is added to each well. The prepared plate is incubated for 45 min at 37°. Medium from each well is then aspirated and the cells are washed once with 200 µL of Hank's Balanced Salt Solution. […]

[2] = Human alphaherpesvirus 2, Table IV, cell culture assay of example 11, read-out: EC50
[3] = Table I, partially purified enzyme from BHK-21/C13 cells infected with strain F HSV-1, mean of four assays
[4] = Human alphaherpesvirus 2, BHK21 (C13), 29 h, Table II, BHK-21/C13 cells, HSV-2 strain HG-52, 0.02 PFU/cell, 29 h incubation, read-out: EC50

T1 sequence (P08543 whole entry): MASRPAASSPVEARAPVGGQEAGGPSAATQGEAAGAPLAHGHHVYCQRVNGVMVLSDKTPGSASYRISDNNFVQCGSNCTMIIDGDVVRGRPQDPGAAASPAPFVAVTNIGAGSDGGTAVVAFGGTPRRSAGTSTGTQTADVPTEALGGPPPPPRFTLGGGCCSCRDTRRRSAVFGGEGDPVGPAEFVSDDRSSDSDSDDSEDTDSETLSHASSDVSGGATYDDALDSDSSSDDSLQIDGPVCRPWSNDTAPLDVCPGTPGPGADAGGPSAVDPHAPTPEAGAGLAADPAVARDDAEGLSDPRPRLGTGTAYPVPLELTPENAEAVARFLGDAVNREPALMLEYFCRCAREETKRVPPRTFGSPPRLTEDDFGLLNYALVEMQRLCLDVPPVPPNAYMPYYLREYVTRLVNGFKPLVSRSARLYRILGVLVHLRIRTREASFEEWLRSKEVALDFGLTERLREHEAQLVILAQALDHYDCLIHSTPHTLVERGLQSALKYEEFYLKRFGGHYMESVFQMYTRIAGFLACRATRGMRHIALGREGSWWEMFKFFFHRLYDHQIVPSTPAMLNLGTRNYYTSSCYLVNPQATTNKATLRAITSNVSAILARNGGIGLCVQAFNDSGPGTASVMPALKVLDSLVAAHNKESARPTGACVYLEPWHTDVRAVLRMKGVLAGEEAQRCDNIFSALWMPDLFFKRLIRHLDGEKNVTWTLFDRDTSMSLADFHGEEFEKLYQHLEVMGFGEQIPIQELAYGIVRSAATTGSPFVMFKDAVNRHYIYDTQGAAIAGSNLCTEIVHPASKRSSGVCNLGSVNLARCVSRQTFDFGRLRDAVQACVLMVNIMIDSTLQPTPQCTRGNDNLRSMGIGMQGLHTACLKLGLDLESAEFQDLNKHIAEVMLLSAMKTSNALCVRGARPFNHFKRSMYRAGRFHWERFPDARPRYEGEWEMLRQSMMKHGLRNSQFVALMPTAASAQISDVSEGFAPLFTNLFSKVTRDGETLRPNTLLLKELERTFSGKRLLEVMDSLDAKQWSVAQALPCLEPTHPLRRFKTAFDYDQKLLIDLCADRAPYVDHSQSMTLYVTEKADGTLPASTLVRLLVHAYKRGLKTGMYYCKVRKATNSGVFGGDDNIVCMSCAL

| Structure (SMILES) | IC50 ([1]; Table IV, assay of example 10) | EC50 (HSV-2; [2]) | further results |
| --- | --- | --- | --- |
| CCCC(CCC)NC(=O)NC(C(=O)CC(CC(=O)C(C)(C)C)C(=O)NC(C(=O)NC(CC)C(C)(C)C)C1(C(=O)O)CCCC1)C(C)(C)C [Pr2CHNHC(O) / NH-(R)-CH(Et)CMe3, Pr2CHNHC(O)-Tbg-CH2-(R)-CH(CH2C(O)CMe3)C(O)-Asp(cyPn)-NH-(R)-CH(Et)CMe3] | 0.34 µM | 10 µM | – |
| CCCC(CCC)NC(=O)NC(C(=O)CC(CC(=O)C(C)(C)C)C(=O)NC(C(=O)NC1CCCCC1(C)C)C1(C(=O)O)CCCC1)C(C)(C)C [Pr2CHNHC(O)-Tbg-CH2-(R)-CH(CH2C(O)CMe3)C(O)-Asp(cyPn)-NH-(2,2-dimethyl-cyclohexyl)] | 0.4 µM | 24 µM | – |
| CCCC(CCC)NC(=O)NC(C(=O)CC(CC(=O)C(C)(C)C)C(=O)NC(C(=O)NCC(C)(C)CCC)C1(C(=O)O)CCCC1)C(C)(C)C [Pr2CHNHC(O) / NHCH2CMe2Pr, Pr2CHNHC(O)-Tbg-CH2-(R)-CH(CH2C(O)CMe3)C(O)-Asp(cyPn)-NHCH2CMe2Pr] | 0.42 µM | 35 µM | – |
| CCCC(CCC)NC(=O)NC(C(=O)CC(CC(=O)C(C)(C)C)C(=O)NC(C(=O)NCC1CCCCC1)C1(C(=O)O)CCCC1)C(C)(C)C [Pr2CHNHC(O) / NHCH2-(cyclohexyl), Pr2CHNHC(O)-Tbg-CH2-(R)-CH(CH2C(O)CMe3)C(O)-Asp(cyPn)-NHCH2-(cyclohexyl)] | 0.36 µM | 47 µM | – |
| CCCC(CC)NC(=O)NC(C(=O)CC(CC(=O)C(C)(C)C)C(=O)NC(C(=O)NCC(C)(C)C)C1(C(=O)O)CCCC1)C(C)(C)C [(R,S)-EtPrCH-NHC(O) / NHCH2CMe3, (R,S)-EtPrCH-NHC(O)-Tbg-CH2-(R)-CH(CH2C(O)CMe3)C(O)-Asp(cyPn)-NHCH2CMe3] | 0.23 µM | 35 µM | – |
| CCCC(CCC)NC(=O)NC(C(=O)CC(CC(=O)C(C)(C)C)C(=O)NC(C(=O)NN(C)C(C)(C)C)C1(C(=O)O)CCCC1)C(C)(C)C [Pr2CHNHC(O) / NH-N(Me)CMe3, Pr2CHNHC(O)-Tbg-CH2-(R)-CH(CH2C(O)CMe3)C(O)-Asp(cyPn)-NH-N(Me)CMe3] | 0.27 µM | 110 µM | – |
| CCCC(CC)(CCC)NC(=O)NC(C(=O)CC(CC(=O)C(C)(C)C)C(=O)NC(C(=O)NC(CC)C(C)(C)C)C1(C(=O)O)CCCC1)C(C)(C)C [EtPr2CNHC(O) / NH-(R)-CH(Et)CMe3, EtPr2CNHC(O)-Tbg-CH2-(R)-CH(CH2C(O)CMe3)C(O)-Asp(cyPn)-NH-(R)-CH(Et)CMe3] | 0.36 µM | 6 µM | – |
| CCCC(CCC)NC(=O)NC(C(=O)CC(CC(=O)C(C)(C)C)C(=O)NC(C(=O)NCCC(C)(C)C)C1(C(=O)O)CCCC1)C(C)(C)C [Pr2CHNHC(O) / NHCH2CH2CMe3, Pr2CHNHC(O)-Tbg-CH2-(R)-CH(CH2C(O)CMe3)C(O)-Asp(cyPn)-NHCH2CH2CMe3] | 0.58 µM | 72 µM | – |
| CCCC(CCC)NC(=O)NC(C(=O)CC(CC(=O)C(C)(C)C)C(=O)NC(C(=O)NCC(C)CC)C1(C(=O)O)CCCC1)C(C)(C)C [Pr2CHNHC(O) / NHCH2-(R,S)-CH(Me)Et, Pr2CHNHC(O)-Tbg-CH2-(R)-CH(CH2C(O)CMe3)C(O)-Asp(cyPn)-NHCH2-(R,S)-CH(Me)Et] | 0.29 µM | 50 µM | – |
| CCC(CC)NC(=O)NC(C(=O)CC(CC(=O)N1CCCC1)C(=O)NC(C(=O)NC(CO)CC(C)(C)C)C1(C(=O)O)CCCC1)C(C)(C)C [Et2CHNHC(O)-Tbg-CH2-(S)-CH{CH2C(O)-(pyrrolidino)}C(O)-Asp(cyPn)-γMeLeucinol] | – | – | IC50 [1, 3]: 0.17 µM; EC50 (HSV-2; [4]): 200 µM |
| CCCC(CCC)NC(=O)NC(C(=O)CC(CC(=O)C(C)(C)C)C(=O)NC(C(=O)NC(C)C(C)(C)CC)C1(C(=O)O)CCCC1)C(C)(C)C [Pr2CHNHC(O)-Tbg-CH2-(R)-CH(CH2C(O)CMe3)C(O)-Asp(cyPn)-NH-(R)-CH(Me)C(Me)2Et] | 0.5 µM | – | EC50 (HSV-2; Human alphaherpesvirus 2, Table IV, cell culture assay of example 11): 21 µM |
| CCCC(CCC)NC(=O)NC(C(=O)CC(CC(=O)C(C)(C)C)C(=O)NC(C(=O)NC(C)C(CC)CC)C1(C(=O)O)CCCC1)C(C)(C)C [Pr2CHNHC(O) / NH-(R)-CH(Me)CHEt2, Pr2CHNHC(O)-Tbg-CH2-(R)-CH(CH2C(O)CMe3)C(O)-Asp(cyPn)-NH-(R)-CH(Me)CHEt2] | 0.33 µM | 16 µM | – |
| CCCC(CCC)NC(=O)NC(C(=O)CC(CC(=O)C(C)(C)C)C(=O)NC(C(=O)NC(CO)CC(C)(C)C)C1(C(=O)O)CCCC1)C(C)(C)C [Pr2CHNHC(O)-Tbg-CH2-(R)-CH(CH2C(O)-CMe3)C(O)-Asp(cyPn)-γMeLeucinol] | – | – | IC50 [1, 3]: 0.2 µM; EC50 (HSV-2; [4]): 30 µM |
| CCCC(C)(C)NC(=O)NC(C(=O)CC(CC(=O)C(C)(C)C)C(=O)NC(C(=O)NCC(C)(C)C)C1(C(=O)O)CCCC1)C(C)(C)C [Me2PrCNHC(O) / NHCH2CMe3, Me2PrCNHC(O)-Tbg-CH2-(R)-CH(CH2C(O)CMe3)C(O)-Asp(cyPn)-NHCH2CMe3] | 0.39 µM | 58 µM | – |
| CCCC(CCC)NC(=O)NC(C(=O)CC(CC(=O)C1CCCCC1)C(=O)NC(C(=O)NCC(C)(C)C)C1(C(=O)O)CCCC1)C(C)(C)C [Pr2CHNHC(O)-Tbg-CH2-(R)-CH{CH2-C(O)-(cyclohexyl)}C(O)-Asp(cyPn)-NHCH2CMe3] | – | – | IC50 ([1]; Table V, assay of example 10): 0.37 µM; EC50 (HSV-2; Human alphaherpesvirus 2): 61 µM |
| CCCC(CCC)NC(=O)NC(C(=O)CC(CC(=O)C(C)(C)C)C(=O)NC(C(=O)NC(C)C(C)(C)C)C1(C(=O)O)CCCC1)C(C)C [Pr2CHNHC(O)-Val-CH2-(R)-CH(CH2-C(O)CMe3)C(O)-Asp(cyPn)-NH-(R)-CH(Me)CMe3] | – | – | IC50 ([1]; Table V, assay of example 10): 0.22 µM; EC50 (HSV-2; Human alphaherpesvirus 2, Table V, cell culture assay of example 11): 37 µM |
| CCCC(CCC)NC(=O)NC(C(=O)CC(CC(=O)C(C)(C)C)C(=O)NC(C(=O)NC(C)CC(C)(C)C)C1(C(=O)O)CCCC1)C(C)(C)C [Pr2CHNHC(O) / NH-(R)-CH(Me)CH2CMe3, Pr2CHNHC(O)-Tbg-CH2-(R)-CH(CH2C(O)CMe3)C(O)-Asp(cyPn)-NH-(R)-CH(Me)CH2CMe3] | 0.37 µM | 14 µM | – |
| CCCCC(CC)NC(=O)NC(C(=O)CC(CC(=O)C(C)(C)C)C(=O)NC(C(=O)NCC(C)(C)C)C1(C(=O)O)CCCC1)C(C)(C)C [(R,S)-EtBuCH-NHC(O) / NHCH2CMe3, (R,S)-EtBuCH-NHC(O)-Tbg-CH2-(R)-CH(CH2C(O)CMe3)C(O)-Asp(cyPn)-NHCH2CMe3] | 0.26 µM | 35 µM | – |
